Results from PubChem BioAssay (NCI).
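In this assay, cells in 96-well plates receive the compound at five concentrations for 48 hours. Endpoints are linearly interpolated between the surrounding concentrations. GI50 is the concentration that inhibits growth by half. TGI: total growth inhibition.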

Key:
Test in all cases: DTP human tumour cell line panel, 48 h
[1] = test system: SW-620 colon
[2] = test system: SR leukemia
[3] = test system: CAKI-1 renal
[4] = test system: HOP-62 NSCLC
[5] = test system: NCI-H23 lung
[6] = test system: SK-MEL-5 melanoma
[7] = test system: OVCAR-5 ovarian
[8] = test system: HOP-92 NSCLC
[9] = test system: SNB-19 CNS
[10] = test system: SK-MEL-28 melanoma

SMILES	GI50 [1] [µM]	TGI [1] [µM]	GI50 [2] [µM]	TGI [2] [µM]	GI50 [3] [µM]	TGI [3] [µM]	GI50 [4] [µM]	TGI [4] [µM]	GI50 [5] [µM]	TGI [5] [µM]	GI50 [6] [µM]	TGI [6] [µM]	GI50 [7] [µM]	TGI [7] [µM]	GI50 [8] [µM]	TGI [8] [µM]	GI50 [9] [µM]	TGI [9] [µM]	GI50 [10] [µM]	TGI [10] [µM]
CSc1ccc(C(=O)/C=C/c2ccc(Cl)cc2Cl)cc1	22.2	56	0.351	0.909	33.4	92	19.6	37.5	21.9	57.4	21.9	59	21.6	52.2	40.2	> 100				
CC(C)(C)[Si](C)(C)OC1[C@@H](COC(=O)NC(=O)CCl)O[C@@H](n2cnc3c(N)ncnc32)[C@H]1O[Si](C)(C)C(C)(C)C (some centres not stated)	1.73	6.54	0.357	1.31	4.25	11.2	4.04	10.3	1.02	2.32	1.82	5.02	3.11	9.55	1.76	9.24	7.61	14.7	7.12	13.7
CC12O[C@H](C[C@@H](OC(=O)CCC(=O)O)[C@H]1O)n1c3ccccc3c3c4c(c5c6ccccc6n2c5c31)C(=O)NC4=O	1.43	13.4	0.505	10.5			0.834	10.7	1.13	20.3	1.41	6.69	7.87	> 50	0.738	4.77	3.62	38.8	1.51	19.8
CCOC(=O)/C=C1/SC(=Nc2ccc(C#N)cc2)N(Cc2ccco2)C1=O	2.06	4.97	2.71	8.41			2.94	9.21	10.6	34.5	6.71	20.4	3.36	16.1	4.51	22.9	3.83	13.8	2.92	10.5
Cc1ccc(Nc2nc(-c3ccc(-c4ccc([N+](=O)[O-])cc4)o3)cs2)cc1		> 100		> 100		> 100		> 100		94.5				> 100		> 100		> 100		> 100
CSc1nc2c(c(=O)n1C)C(c1ccccc1)C1=C(N2)/C(=C/c2ccccc2)CCC1 (configuration not stated)	2.53	6.81	1.89	> 100	69	> 100	20	> 100	7.1	> 100	3.58	> 100	71.7	> 100	36.6	> 100	22.4	> 100	> 100	> 100
COc1ccc(C(=O)C(C(=O)C(=O)NCCCNC(=O)C(=O)C(C(=O)c2ccc(OC)cc2)c2ccc(OC)cc2)c2ccc(OC)cc2)cc1 (configuration not stated)		> 100		> 100				> 100		> 100				> 100		> 100		> 100		> 100
COc1ccc2nc3ccccc3c(NCCNCC(C)O)c2c1 (configuration not stated)	0.3	12.5	0.278	10.8	0.434	11.4	0.369	2.57	0.367	2.05	1.03	2.3	0.377	5.01	0.393	3.48	0.391	10.3	0.539	2.77
Cc1cc(Br)ccc1N=Nc1c(C)nn(-c2ccccc2)c1-c1ccccc1		> 100		> 100		> 100		> 100		> 100		> 100		> 100		> 100		> 100		> 100
O=C(NC1=C(Cl)C(=O)c2ccccc2C1=O)C(=O)C(C(=O)c1ccc2ccccc2c1)C1OC(=O)c2ccccc21 (configuration not stated)		28.2		29.4		23.2		20.2		13.4		1.96		27.5		10.3		19		14.5
COc1ccc(-c2c(-c3ccc(C#N)c(F)c3)nc(N3CCC(N)CC3)n(C)c2=O)cc1F	24.2	96.2	12.2	34.6	13.8	30.6	17.1	> 100	19.6	91.6	14.9	28.4	14.4	44.2			31.6	> 100	15.3	29.8
CN1CCN(c2ccc(NC3=CC(=O)c4ncncc4C3=O)cc2)CC1	0.336	1.27	0.321	> 100	1.34	2.68			0.369	1.67	0.302	0.871	0.285	0.801	0.312	0.993	1.52	2.93	1.46	3.08
CC/C=C\C[C@H]1C/C=C2/C(=O)C(Cl)=C[C@@H]2C/C=C\CCCC(=O)O1	0.0995	0.596	0.0753	4.93	0.45	1.51	0.49	1.31	0.459	1.22	0.379	0.759	0.592	1.84	0.499	1.6	0.665	3.54	0.46	1.15
C(=N\Nc1ccc2ccccc2n1)/c1ccccn1	0.644	> 43.3	0.328		0.257	0.763	0.431	6.98	0.857	> 100	0.694	3.67	0.596	> 100	0.816	32.8	0.921	> 100	1.96	> 100
CN(C)N=Nc1ccc(S(N)(=O)=O)cc1		> 100		> 100		> 100		> 100		> 100		> 100		> 100		> 100		> 100		> 100
COC(=O)c1cc(-c2ccc(S(C)(=O)=O)cc2)[nH]c1N/N=C/c1c(Cl)cccc1Cl	0.362	> 100		> 100	0.377	13.9	0.787	32.9	0.75	> 93.7	0.427	14.5	4.08	> 100	0.845	> 28.2	0.516	> 100	0.893	> 58.2
COc1ccc(/C=C/c2ccnc3ccccc23)cc1OC		29.1		54.2		29.3		28.5		45.5		28		27.6				31.2		31.7
CCN1C(=O)N(CC)C2C1N=C(SC)N2/N=C/C=C/c1ccccc1OC (configuration not stated)	0.412	> 100	0.358	13.2	0.572	> 58.3	0.55	> 45	0.51	> 38.8	0.365	1.51	0.63	> 54.4	0.428	7.31	0.492	> 39	> 32.1	> 50.3
COc1cc(-c2ccc[nH]2)[nH]c1/C=C1\N=C(C)C(CC(=O)OCC(C)(C)C)=C1C	0.192	1.48	0.122	0.617	0.263	1.13	0.218	1.38	0.441	2.22	0.137	0.279	0.501	2.31	0.11	0.531	0.468	2.51	0.305	1.34
COc1cc(O)c(C(=O)/C=C/c2ccc(OC)c(OCc3ccccc3)c2)c(OC)c1		> 100		> 100		> 100		> 100		> 100		> 100		> 100		> 100		> 100		
NC(=O)c1ncn(C2OC(CO)C(O)C2O)c1O (configuration not stated)		> 100		> 100		> 100		> 100						> 100		> 100		> 100		> 100
COc1ccc2c(c1)-c1c(c3cc(OC)ccc3n(CCN(C)C)c1=O)C2=O	0.208	2.95	0.592	2.64	1.77	18.8	0.676	12.1	1.59	8.82	2.6	8.92	3.14	12.7	2.65	50	0.812	7.18	2.59	8.73
C[C@]12CCC(=O)C[C@@H]1CC[C@@H]1[C@@H]2CC[C@]2(C)[C@@H](OC(=O)N(CCCl)N=O)CC[C@@H]12	1.11	19		> 37.7	0.591	12	1.75	14.1	1.32	25.4	1.05	6.16	6.31	22.4	0.179	11.1	0.411	17.8	6.43	23
O=C(C(=CN1CCN(C(=O)c2ccco2)C1=S)C(=O)c1ccccc1)c1ccccc1	8.73	20.3	1.28	6.72	6.98	17.2	15.9	44.2	6.95	14	10.9	19.5			27	> 50	29.2	> 50	17.8	> 50
O=C1[C@@H]2C(c3ccccc3[N+](=O)[O-])=NO[C@@H]2C(=O)N1c1ccc(Cc2ccc(N3C(=O)[C@H]4C(c5ccccc5[N+](=O)[O-])=NO[C@H]4C3=O)cc2)cc1		> 100		> 100		> 100		> 100		> 100		> 100		> 100		> 100		> 100		> 100
Clc1ccc(-c2nc(NCc3ccco3)c3ccccc3n2)c(Cl)c1			10.1	44.7	8.82	31	15.8	34.7	17.1	60.5	13.9	30	40.1	> 100	4.94	74.7	38.4	> 100	24.5	> 100
O=C1/C(=C/c2ccc(C(F)(F)F)cc2)COc2ccc(O)c(O)c21			0.267	2.53	1.11	2.38	1.65	3.41	1.61	3.21	1.73	3.21	1.6	3.09	1.97	6.67	1.48	2.87	1.72	3.15
FC(F)(F)c1cccc(-c2[nH]ncc2-c2nnnn2-c2ccccc2)c1	3.23	12.2	1.94	5.42	5.36	27.7	7.88	23.4	5.86	23.3	3.01	10.6	10.6	31.2		8.19			5.6	19.1
O=C1Cc2cc(CCN3CCNCC3)c(Cl)cc2N1	4.98	> 100	6.2	> 100	6.11	> 100	19.3	> 100	46.4	> 100	5.33	> 100	79.2	> 100			23.7	> 100	37	> 100
